Patent publication US11059784B2, “Oxime ether compounds” (BRISTOL-MYERS SQUIBB COMPANY, priority 2017, dated 2021)

Tests used:
S1P1 [1] = target: T1, S1P1 (Homo sapiens (Human), UniProt P21453); assay: Receptor [35S] GTPγS Binding Assay, S1P1; format: biochemical; conditions: membranes from S1P1/CHO cells
Description: (§1) Receptor [^35S] GTPγS Binding Assays:
(§2) Compounds were loaded in a 384 Falcon v-bottom plate (0.5 μl/well in an 11 point, 3-fold dilution). Membranes prepared from S1P1/CHO cells or EDG3-Gal5-bla HEK293T cells (EDG3 equivalent S1P3) were added to the compound plate ([…], final protein 3 μg/well) with MULTIDROP®. [^35S]GTP (1250 Ci/mmol, Perkin Elmer) was diluted in assay buffer: 20 mM HEPES, pH7.5, 10 mM MgCl2, 150 mM NaCl, 1 mM EGTA (ethylene glycol tetraacetic acid), 1 mM DTT (Dithiothreitol), 10 μM GDP, 0.1% fatty acid free BSA, and 10 μg/ml Saponin to 0.4 nM. 40 μl of the [35S] GTP solution was added to the compound plate with a final concentration of 0.2 nM. The reaction was kept at room temperature for 45 min. At the end of incubation, all the mixtures in the compound plate were transferred to Millipore 384-well FB filter plates via the VELOCITY11 ® Vprep liquid handler. The filter plate was washed with water 4 times by using the manifold Embla plate washer and dried at 60° C. for 45 min. MicroScint 20 scintillation fluid (30 μl) was added to each well for counting on the Packard TOPCOUNT®. EC50 is defined as the agonist concentration that corresponds to 50% of the Ymax (maximal response) obtained for each individual compound tested.
A smaller value for GTPγS S1P1 EC50 value indicated greater activity for the compound in the GTPγS S1P1 binding assay. Thus the compounds of the present invention may be used in treating, preventing, or curing various S1P1 receptor-related conditions. The compounds have potential use in treating, preventing, or curing autoimmune and inflammatory diseases such as multiple sclerosis, rheumatoid arthritis, inflammatory bowel disease, lupus, psoriasis, or minimizing or reducing rejection of transplanted organs.

S1P1 [2] = target: T1, S1P1; assay: S1P1 Binding Assay (33P-S1P ligand competition, CHO membranes); conditions: membranes from CHO cells expressing human S1P1
Description: Membranes were prepared from CHO cells expressing human S1P1. Cells pellets (1×10^9 cells/pellet) were suspended in buffer containing 20 mM HEPES (4-(2-hydroxyethyl)-1-piperazineethanesulfonic acid), pH 7.5, 50 mM NaCl, 2 mM EDTA (ethylenediamine tetraacetic acid) and Protease Inhibitor cocktail (Roche), and disrupted on ice using the Polytron homogenizer. The homogenate was centrifuged at 20,000 rpm (48,000 g) and the supernatant was discarded. The membrane pellets were resuspended in buffer containing 50 mM HEPES, pH 7.5, 100 mM NaCl, 1 mM MgCl2, 2 mM EDTA and stored in aliquots at −80° C. after protein concentration determination.
Membranes (2 μg/well) and 0.03 nM final concentration of ^33P-S1P ligand (1 mCi/ml, Perkin Elmer or American Radiolabeled Chemicals) diluted in assay buffer (50 mM HEPES, pH7.4, 5 mM MgCl2, 1 mM CaCl2), 0.5% fatty acid free BSA (bovine serum albumin), 1 mM NaF) were added to the compound plates (384 Falcon v-bottom plate (0.5 μl/well in a 11 point, 3-fold dilution). Binding was performed for 45 minutes at room temperature, terminated by collecting the membranes onto 384-well Millipore FB filter plates, and radioactivity was measured by TOPCOUNT®. The competition data of the test compounds over a range of concentrations was plotted as percentage inhibition of radioligand specific binding. The IC50 is defined as the concentration of competing ligand needed to reduce specific binding by 50%.

S1P3 = S1P3 (Homo sapiens (Human), UniProt Q99500); assay: Receptor [35S] GTPγS Binding Assay, S1P3; format: biochemical; conditions: membranes from EDG3-Gal5-bla HEK293T cells
Chain of S1P3 (Q99500 whole entry): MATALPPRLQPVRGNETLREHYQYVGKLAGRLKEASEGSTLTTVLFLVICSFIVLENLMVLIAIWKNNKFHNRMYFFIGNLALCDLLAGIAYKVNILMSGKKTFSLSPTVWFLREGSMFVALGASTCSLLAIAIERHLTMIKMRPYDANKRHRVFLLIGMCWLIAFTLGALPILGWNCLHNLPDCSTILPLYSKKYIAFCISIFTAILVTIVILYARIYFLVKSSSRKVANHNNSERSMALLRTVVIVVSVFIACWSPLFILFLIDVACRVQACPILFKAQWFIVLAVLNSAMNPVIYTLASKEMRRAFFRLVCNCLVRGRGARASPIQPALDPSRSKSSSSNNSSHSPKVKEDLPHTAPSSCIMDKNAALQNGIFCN
Description: as §1, §2

T1 sequence (P21453 whole entry): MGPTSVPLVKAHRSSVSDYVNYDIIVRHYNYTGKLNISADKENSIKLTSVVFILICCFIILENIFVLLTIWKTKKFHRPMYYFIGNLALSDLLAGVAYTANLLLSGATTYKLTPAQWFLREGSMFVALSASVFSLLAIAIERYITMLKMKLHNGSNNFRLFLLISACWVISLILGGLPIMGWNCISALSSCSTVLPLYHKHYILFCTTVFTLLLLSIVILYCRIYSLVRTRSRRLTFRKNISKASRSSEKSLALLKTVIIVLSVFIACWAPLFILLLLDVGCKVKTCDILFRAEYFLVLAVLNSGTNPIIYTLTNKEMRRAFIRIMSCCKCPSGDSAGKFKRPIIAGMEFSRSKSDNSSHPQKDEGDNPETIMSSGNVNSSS

Compound | EC50 (S1P1 [1]) | IC50 (S1P1 [2]) | EC50 (S1P3)
C/C(=N\OCc1ccc(C2CCCCC2)c(C(F)(F)F)c1)c1ccc(S(=O)(=O)N2CCC(N)(COP(=O)(O)O)CC2)cc1 [Example 70, (E)-(4-amino-1-((4-(1-(((4-cyclohexyl-3-(trifluoromethyl)benzyl)oxy)imino)ethyl)phenyl)sulfonyl)piperidin-4-yl) methyl dihydrogen phosphate] | 406 nM | 918 nM | > 18000 nM
C/C(=N\OCCCc1ccccc1)c1ccc(C(=O)N2CCC(N)(COP(=O)(O)O)CC2)cc1 [Example 57, (4-amino-1-(4-(1-((3-phenylpropoxy)imino)ethyl)benzoyl)piperidin-4-yl)methyl dihydrogen phosphate] | 324 nM | 1870 nM | > 60000 nM
C/C(=N\OCCCc1ccccc1)c1ccc(C(=O)N2CCCC(N)(COP(=O)(O)O)C2)cc1 (single isomer, unassigned) [Example 69, (E)-(3-amino-1-(4-(1-((3-phenylpropoxy)imino)ethyl)benzoyl)piperidin-3-yl)methyl dihydrogen phosphate] | 767 nM | 899 nM | –
C/C(=N\OCc1ccc(C2CCCCC2)c(C(F)(F)F)c1)c1ccc(C(=O)N2CCCC(N)(COP(=O)(O)O)C2)cc1 (single isomer, unassigned) [Example 66, (E)-(3-amino-1-(4-(1-(((4-cyclohexyl-3-(trifluoromethyl)benzyl)oxy)imino)ethyl)benzoyl)piperidin-3-yl)methyl dihydrogen phosphate] | 194 nM | 62 nM | 9370 nM
C/C(=N\OCc1ccc(C2CCCCC2)c(C(F)(F)F)c1)c1ccc(C(=O)N2CCCC(N)(COP(=O)(O)O)C2)cc1 (single isomer, unassigned) [Example 67, (E)-(3-amino-1-(4-(1-(((4-cyclohexyl-3-(trifluoromethyl)benzyl)oxy)imino)ethyl)benzoyl)piperidin-3-yl)methyl dihydrogen phosphate] | 754 nM | 120 nM | > 18000 nM
CC(=NOCCc1ccccc1)c1ccc(C(=O)N2CCC(N)(COP(=O)(O)O)C2)cc1 (stereo not drawn) [Example 55, (3-amino-1-(4-(1-(phenethoxyimino)ethyl)benzoyl)pyrrolidin-3-yl)methyl Dihydrogen Phosphate] | 1560 nM | – | > 60000 nM
C/C(=N\OCc1ccc(C2CCCCC2)c(C(F)(F)F)c1)c1ccc(C(=O)N2CCC(N)(COP(=O)(O)O)C2)cc1 (single isomer, unassigned) [Example 60, (E)-(3-amino-1-(4-(1-(((4-cyclohexyl-3-(trifluoromethyl)benzyl)oxy)imino)ethyl)benzoyl)pyrrolidin-3-yl)methyl dihydrogen phosphate] | 434 nM | 28.4 nM | > 6250 nM
CC/C(=N\OCCCc1ccccc1)c1ccc(C(=O)N2CCC(N)(COP(=O)(O)O)C2)cc1 (single isomer, unassigned) [Example 64, (E)-(3-amino-1-(4-(1-((3-phenylpropoxy)imino)propyl)benzoyl)pyrrolidin-3-yl) methyl dihydrogen phosphate] | 500 nM | 2530 nM | > 6250 nM
C/C(=N\OCc1ccc(C2CCCCC2)c(C(F)(F)F)c1)c1ccc(C(=O)N2CCC(N)(COP(=O)(O)O)CC2)cc1 [Example 58, (E)-(4-amino-1-(4-(1-(((4-cyclohexyl-3-(trifluoromethyl)benzyl)oxy)imino)ethyl)benzoyl)piperidin-4-yl)methyl dihydrogen phosphate] | 60.8 nM | 10.7 nM | > 3120 nM
C/C(=N\OCCCc1ccccc1)c1ccc(C(=O)N2CCC(N)(COP(=O)(O)O)C2)cc1 (single isomer, unassigned) [Example 62, (E)-(3-amino-1-(4-(1-((3-phenylpropoxy)imino)ethyl)benzoyl)pyrrolidin-3-yl)methyl dihydrogen phosphate] | 504 nM | 1470 nM | > 6250 nM
C/C(=N\OCCc1ccccc1)c1ccc(C(=O)N2CCC(N)(COP(=O)(O)O)CC2)cc1 [Example 56, (4-amino-1-(4-(1-(phenethoxyimino)ethyl)benzoyl)piperidin-4-yl)methyl dihydrogen phosphate] | 295 nM | – | > 60000 nM

Next, values leading:

EC50 (S1P1 [1]) | IC50 (S1P1 [2]) | EC50 (S1P3) | Compound
44.4 nM | 49.6 nM | > 30000 nM | C/C(=N\OCCc1ccccc1)c1ccc(C2CC[C@](N)(COP(=O)(O)O)C2)cc1 (stereo in doubt) [Example 73, ((1R,3R)-1-amino-3-(4-((E)-1-(phenethoxyimino)ethyl)phenyl)cyclopentyl)methyl dihydrogen phosphate]
– | 865 nM | – | CC(=NOCc1ccccc1)c1ccc([C@@H]2CC[C@](N)(COP(=O)(O)O)C2)cc1 [Example 39, ((1R,3R)-1-amino-3-(4-(1-((benzyloxy)imino)ethyl)phenyl)cyclopentyl)methyl dihydrogen phosphate]
26.4 nM | – | > 30000 nM | CC(=NOCc1ccc(F)cc1)c1ccc([C@@H]2CC[C@](N)(COP(=O)(O)O)C2)cc1 [Example 43, ((1R,3R)-1-amino-3-(4-(1-(((4-fluorobenzyl)oxy)imino)ethyl)phenyl)cyclopentyl) methyl dihydrogen phosphate]
38.1 nM | 28.3 nM | > 60000 nM | C/C(=N\OCc1ccc(C2CCCCC2)c(C(F)(F)F)c1)c1ccc([C@@H]2CC[C@](N)(COP(=O)(O)O)C2)cc1 [Example 40, ((1R,3R)-1-amino-3-(4-((E)-1-(((4-cyclohexyl-3-(trifluoromethyl)benzyl)oxy)imino)ethyl)phenyl)cyclopentyl) methyl dihydrogen phosphate]
20.3 nM | 15.1 nM | > 60000 nM | CC(=NOCC1CCCCC1)c1ccc([C@@H]2CC[C@](N)(COP(=O)(O)O)C2)cc1 [Example 44]
> 30000 nM | 284 nM | > 30000 nM | CC(=NOCC1CC1)c1ccc([C@@H]2CC[C@](N)(COP(=O)(O)O)C2)cc1 [Example 38, ((1R,3R)-1-amino-3-(4-(1-((cyclopropylmethoxy)imino)ethyl)phenyl)cyclopentyl)methyl Dihydrogen Phosphate]
– | 14.2 nM | – | COc1cccc(/C(C)=N/OCc2ccc([C@H]3CC[C@](N)(COP(=O)(O)O)C3)cc2)c1 [Example 54, ((1R,3S)-1-amino-3-(4-(((((E)-1-(3-methoxyphenyl)ethylidene)amino)oxy)methyl)phenyl)cyclopentyl) methyl dihydrogen phosphate]
25.3 nM | 20 nM | 773 nM | C/C(=N\OCCCc1ccccc1)c1ccc([C@@H]2CC[C@](N)(COP(=O)(O)O)C2)cc1 [Example 41, ((1R,3R)-1-amino-3-(4-((E)-1-((3-phenylpropoxy)imino)ethyl)phenyl)cyclopentyl) methyl dihydrogen phosphate]
17.6 nM | – | > 30000 nM | CC(=NOCc1ccc([N+](=O)[O-])cc1)c1ccc([C@@H]2CC[C@](N)(COP(=O)(O)O)C2)cc1 [Example 42, ((1R,3R)-1-amino-3-(4-(1-(((4-nitrobenzyl)oxy)imino)ethyl)phenyl)cyclopentyl) methyl dihydrogen phosphate]
